Experimental data taken from patent publication US8778966B2, “Quinolinone derivatives as PARP and tank inhibitors” (Janssen Pharmaceutica, NV, priority 2007, dated 2014).
Like-named read-outs stand apart in the source and are kept apart here.

Tests used:
HCT116 cells [1] = assay: Antiproliferative activity, Alamar Blue assay, HCT116 cells; assay type: cell-based, human; design: key to HCT116 antiproliferative activity pIC50: pIC50 = -log IC50 (IC50: conc. reducing growth to 50% of control); details: for IC50: Homo sapiens, HCT-116, HCT116 cells, read-out: HCT116 antiproliferative activity pIC50 (converted)
Method in brief: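 HCT116 cells seeded, adhered 24 h, then exposed to compound for 4 days; Alamar Blue (resazurin) added for 4 h at 37 °C, fluorescence read at 540/590 nm. Viability as % of untreated control, triplicate wells; IC50 by probit analysis, reported as pIC50.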

HCT116 cells [2] = assay: Mitotic arrest assay on HCT116 cells (phospho-histone H3 Ser10); assay type: cell-based, human; details: lowest active dose; for minimal effective concentration: Homo sapiens, HCT-116, HCT116 cells, read-out: Mitotic arrest HCT116 LAD (converted)
Method in brief: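 Seeded overnight, then compound-treated 6 h at 37 °C (≤0.1% DMSO); fixed, stained with Alexa Fluor 488 anti-phospho-H3 (Ser10) plus Hoechst 33342, imaged on InCell Analyzer 1000. Blank-subtracted signal divided by SD (sigma), triplicate; value is lowest dose giving sigma >5 (LAD).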

Row | Compound | IC50 (HCT116 cells [1]) [nM] | minimal effective concentration (HCT116 cells [2]) [µM] | HCT116 antiproliferative activity pIC50 (HCT116 cells [1]; HCT116 cells) | Mitotic arrest HCT116 LAD (HCT116 cells [2]; HCT116 cells, the values are: pLAD (−log M lowest active dose)) | IC50 (HCT116 cells [1]; Alamar Blue) [nM]
1 | CCc1cc2ccc([C@](C)(C#N)Cc3ccccc3)cc2[nH]c1=O (single isomer, unassigned) [Compound 45] | > 10000 | > 10 | – | – | –
2 | CCc1cc2ccc([C@@](C)(C#N)Cc3ccccc3)cc2[nH]c1=O (single isomer, unassigned) [Compound 46] | 158 | 0.316 | – | – | –
3 | CCc1cc2ccc(C(C)(C#N)CC3COc4ccccc4O3)cc2[nH]c1=O (single isomer, unassigned) [Compound 47] | – | – | <5 | 5.5 | –
4 | CCc1cc2ccc([C@](C)(C#N)Cc3nc(OC)cc(OC)n3)cc2[nH]c1=O (single isomer, unassigned) [Compound 52] | – | 3 | – | – | 5010
5 | CCc1cc2ccc([C@@](C)(C#N)Cc3nc(OC)cc(OC)n3)cc2[nH]c1=O (single isomer, unassigned) [Compound 53] | – | 0.02 | – | – | 39.8
6 | CCc1cc2ccc(C(C)(C#N)Cc3cccc(C#C[Si](C)(C)C)c3)cc2[nH]c1=O (centres unmarked) [Compound 1] | – | 1 | – | – | 200
7 | CCc1cc2ccc(C(C)(C#N)Cc3cccc(CN(C)C)c3)cc2[nH]c1=O (centres unmarked) [Compound 7] | 2510 | 3.16 | – | – | –
8 | CCc1cc2ccc(C(C)(C#N)Cc3cccc(COC)c3)cc2[nH]c1=O (centres unmarked) [Compound 8] | 631 | 0.1 | – | – | –
9 | CCc1cc2ccc(C(C)(C#N)Cc3cccc(CO)c3)cc2[nH]c1=O (centres unmarked) [Compound 9] | 251 | 0.316 | – | – | –
10 | CCc1cc2ccc(C(C#N)(Cc3ccccc3)CC3CC3)cc2[nH]c1=O (centres unmarked) [Compound 28] | > 10000 | 3.16 | – | – | –
11 | CC(C#N)(Cc1ccccc1)c1ccc2cc(CO)c(=O)[nH]c2c1 (centres unmarked) [Compound 40] | 7940 | 3.16 | – | – | –
12 | CCc1cc2ccc(C(C)(C#N)Cc3c(F)ccc(C)c3F)cc2[nH]c1=O (centres unmarked) [Compound 41] | 631 | 0.316 | – | – | –
13 | CCc1cc2ccc(C(C)(C#N)Cc3nnsc3Cl)cc2[nH]c1=O (centres unmarked) [Compound 42] | 158 | 0.1 | – | – | –
14 | CCc1cc2ccc(C(C)(C#N)Cc3nc(OC)cc(OC)n3)cc2[nH]c1=O (centres unmarked) [Compound 43] | 158 | 0.0316 | – | – | –
15 | CCc1cc2ccc(C(C)(C#N)Cc3ccccc3)cc2[nH]c1=O (centres unmarked) [Compound 44] | – | 0.316 | – | – | –
16 | CCc1cc2ccc(C(C)(C#N)Cc3cccc(Br)c3)cc2[nH]c1=O (centres unmarked) [Compound 49] | 200 | 0.1 | – | – | –
17 | CCOP(=O)(OCC)c1cccc(CC(C)(C#N)c2ccc3cc(CC)c(=O)[nH]c3c2)c1 (centres unmarked) [Compound 50] | 1260 | 0.316 | – | – | –
18 | CCc1cc2ccc(C(C)(C#N)Cc3cccc(C#N)c3)cc2[nH]c1=O (centres unmarked) [Compound 51] | 126 | 0.1 | – | – | –
19 | CCc1cc2ccc(C(C)(C#N)CCOc3ccc([N+](=O)[O-])cc3)cc2[nH]c1=O (centres unmarked) [Compound 54] | 501 | 0.1 | – | – | –
20 | CCc1cc2ccc(C(C)(C#N)Cc3cccc(CN4CCN(C)CC4)c3)cc2[nH]c1=O (centres unmarked) [Compound 57] | > 10000 | > 10 | – | – | –
21 | CCc1cc2ccc(C(C)(C#N)Cc3cccc(CN4CCOCC4)c3)cc2[nH]c1=O (centres unmarked) [Compound 58] | 501 | 3.16 | – | – | –
22 | CCc1cc2ccc(C(C)(C#N)Cc3cccc(CNC)c3)cc2[nH]c1=O (centres unmarked) [Compound 59] | 3160 | 10 | – | – | –
23 | CCc1cc2ccc(C(C)(C#N)Cc3cccc(CNCCOC)c3)cc2[nH]c1=O (centres unmarked) [Compound 60] | 6310 | 1 | – | – | –
24 | CCc1cc2ccc(C(C)(C#N)Cc3cccc(CNCCN4CCOCC4)c3)cc2[nH]c1=O (centres unmarked) [Compound 61] | > 10000 | 10 | – | – | –
25 | CCc1cc2ccc(C(C)(C#N)Cc3cccc(C(=O)NCCOC)c3)cc2[nH]c1=O (centres unmarked) [Compound 62] | 7940 | 1 | – | – | –
26 | CCc1cc2ccc(C(C)(C#N)Cc3cccc(C(=O)N(C)C)c3)cc2[nH]c1=O (centres unmarked) [Compound 63] | 1580 | 0.316 | – | – | –
27 | CCc1cc2ccc(C(C)(C#N)Cc3cccc(N4CCNCC4)c3)cc2[nH]c1=O (centres unmarked) [Compound 64] | > 10000 | 3.16 | – | – | –
28 | CCc1cc2ccc(C(C)(C#N)Cc3cccc(N4CCCCC4)c3)cc2[nH]c1=O (centres unmarked) [Compound 65] | – | 1 | – | – | –
29 | CCc1cc2ccc(C(C)(C#N)Cc3cccc(N4CCN(C)CC4)c3)cc2[nH]c1=O (centres unmarked) [Compound 66] | 5010 | 3.16 | – | – | –
